Results as given in article PMC9005971, “Discovery of 2-(4-Acrylamidophenyl)-Quinoline-4-Carboxylic Acid Derivatives as Potent SIRT3 Inhibitors” (Frontiers in Chemistry, 2022).

Legend:
SIRT3 = target: T1, SIRT3 (Homo sapiens, UniProt Q9NTG7); assay: SIRT3 enzyme inhibitory assay (fluorescence); format: biochemical; conditions: for activity at 0.01 µM / activity at 0.033 µM / activity at 0.1 µM / activity at 0.333 µM / activity at 1 µM / activity at 3.3 µM / activity at 10 µM / activity at 33 µM / activity at 100 µM: SIRT3 enzyme activity; for activity at 0.01 µM: 10 nM; for activity at 0.033 µM: 33 nM; for activity at 0.1 µM: 100 nM; for activity at 0.333 µM: 333 nM
T1 sequence (Q9NTG7 1-399): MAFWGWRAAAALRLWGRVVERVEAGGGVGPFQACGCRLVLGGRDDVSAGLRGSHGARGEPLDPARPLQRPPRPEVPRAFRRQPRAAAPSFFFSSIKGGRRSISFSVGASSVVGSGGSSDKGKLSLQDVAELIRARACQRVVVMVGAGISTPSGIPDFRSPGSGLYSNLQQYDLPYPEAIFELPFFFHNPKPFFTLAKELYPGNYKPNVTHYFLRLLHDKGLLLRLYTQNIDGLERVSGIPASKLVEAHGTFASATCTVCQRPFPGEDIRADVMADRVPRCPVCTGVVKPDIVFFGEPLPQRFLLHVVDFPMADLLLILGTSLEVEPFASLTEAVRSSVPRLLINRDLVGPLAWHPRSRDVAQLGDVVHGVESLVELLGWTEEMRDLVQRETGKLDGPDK
Protocol: (§1) All of the enzymatic reactions were conducted at 37°C for 30 min. […] The compounds were diluted in 10% DMSO and 5 ul of the dilution was added to each reaction mixture (50 ul). The assay was performed by quantitating the amount of fluorescent product generated from the enzyme reaction. Fluorescence intensity is then analyzed at excitation wavelength of 350–360 nm and emission wavelength of 450–460 nm on a SpectraMax M5 microtiter plate reader. The IC50 values were calculated using Prism GraphPad software.

SIRT1 = target: T2, SIRT1 (Homo sapiens, UniProt Q96EB6); assay: SIRT1 enzyme inhibitory assay (fluorescence); format: biochemical; conditions: for activity at 0.01 µM / activity at 0.033 µM / activity at 0.1 µM / activity at 0.333 µM / activity at 1 µM / activity at 3.3 µM / activity at 10 µM / activity at 33 µM / activity at 100 µM: SIRT1 enzyme activity; for activity at 0.01 µM: 10 nM; for activity at 0.033 µM: 33 nM; for activity at 0.1 µM: 100 nM; for activity at 0.333 µM: 333 nM
T2 sequence (Q96EB6 1-747): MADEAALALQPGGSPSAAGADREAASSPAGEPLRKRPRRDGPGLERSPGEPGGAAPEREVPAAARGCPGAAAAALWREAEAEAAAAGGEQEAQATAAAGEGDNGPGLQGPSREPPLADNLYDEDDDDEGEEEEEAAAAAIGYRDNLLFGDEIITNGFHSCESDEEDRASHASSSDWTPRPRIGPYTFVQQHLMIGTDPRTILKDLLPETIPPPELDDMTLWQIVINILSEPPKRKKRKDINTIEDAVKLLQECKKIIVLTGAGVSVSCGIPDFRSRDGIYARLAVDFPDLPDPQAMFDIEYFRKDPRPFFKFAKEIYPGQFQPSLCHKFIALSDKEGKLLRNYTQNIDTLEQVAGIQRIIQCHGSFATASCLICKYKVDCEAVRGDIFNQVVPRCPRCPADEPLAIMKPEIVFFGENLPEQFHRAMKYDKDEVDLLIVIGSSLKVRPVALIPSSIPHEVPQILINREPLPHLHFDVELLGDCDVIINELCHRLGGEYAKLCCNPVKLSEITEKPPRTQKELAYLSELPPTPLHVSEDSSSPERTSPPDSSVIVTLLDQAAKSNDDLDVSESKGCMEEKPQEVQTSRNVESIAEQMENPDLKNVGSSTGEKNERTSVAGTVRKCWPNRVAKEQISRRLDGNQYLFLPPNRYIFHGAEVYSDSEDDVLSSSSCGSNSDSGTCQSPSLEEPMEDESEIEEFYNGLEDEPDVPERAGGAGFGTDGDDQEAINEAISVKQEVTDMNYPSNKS
Protocol: as §1

SEM cells = assay: In vitro antiproliferative CCK-8 assay, SEM; format: cell-based; conditions: 72 h, read-out: IC50 growth inhibition SEM
Protocol: The proliferation of THP-1, MOLM-13, SEM and MV4-11 cells was tested by CCK-8 assay. Briefly, cells were seeded in 96-well plate with about 5 × 10^3 cells in each well. The cells were treated with P6 or Ara-C (0–10 µM) after 24 h of incubation. CCK-8 reagent ([…]) was added to each well after 72 h of incubation, and cells were incubated at 37°C for 4 h. The light absorbance at 450 nm was measured by using an Opsys microplate reader (Dynex Technologirs, Chantilly, VA, United States). Results are illustrated as percent of cell viability normalized to DMSO-treated control cells.

C=CC(=O)Nc1ccc(-c2cc(C(=O)N3CCN(c4ccccc4F)CC3)c3ccccc3n2)cc1 [Compound P6, N-(4-{4-[4-(2-Fluoro-phenyl)-piperazine-1-carbonyl]-quinolin-2-yl}-phenyl)-acrylamide]
activity at 0.01 µM (SIRT3; Repeat1): 101%
activity at 0.01 µM (SIRT3; Repeat2): 99%
activity at 0.033 µM (SIRT3; Repeat1): 98%
activity at 0.033 µM (SIRT3; Repeat2): 97%
activity at 0.1 µM (SIRT3; Repeat1): 104%
activity at 0.1 µM (SIRT3; Repeat2): 95%
activity at 0.333 µM (SIRT3; Repeat1): 95%
activity at 0.333 µM (SIRT3; Repeat2): 88%
activity at 1 µM (SIRT3; Repeat1): 76%
activity at 1 µM (SIRT3; Repeat2): 74%
activity at 3.3 µM (SIRT3; Repeat1): 61%
activity at 3.3 µM (SIRT3; Repeat2): 59%
activity at 10 µM (SIRT3; Repeat1): 38%
activity at 10 µM (SIRT3; Repeat2): 38%
activity at 33 µM (SIRT3; Repeat1): 33%
activity at 33 µM (SIRT3; Repeat2): 31%
activity at 100 µM (SIRT3; Repeat1): 24%
activity at 100 µM (SIRT3; Repeat2): 21%
inhibition at 10 µM (SIRT3; dose of 10 μM, mean of three experiments, read-out: SIRT3 percentage inhibitory rate): 65.2 ± 3.26%
selectivity among SIRT1-3 (SIRT3; enzyme selectivity test, SIRT3 vs SIRT1 and SIRT2): can selectively inhibit SIRT3
IC50 (SIRT3; mean of two experiments): 7.2 ± 0.5 µM
activity at 0.01 µM (SIRT1; Repeat1): 98%
activity at 0.01 µM (SIRT1; Repeat2): 102%
activity at 0.033 µM (SIRT1; Repeat1): 97%
activity at 0.033 µM (SIRT1; Repeat2): 98%
activity at 0.1 µM (SIRT1; Repeat1): 100%
activity at 0.1 µM (SIRT1; Repeat2): 97%
activity at 0.333 µM (SIRT1; Repeat1): 101%
activity at 0.333 µM (SIRT1; Repeat2): 95%
activity at 1 µM (SIRT1; Repeat1): 97%
activity at 1 µM (SIRT1; Repeat2): 89%
activity at 3.3 µM (SIRT1; Repeat1): 91%
activity at 3.3 µM (SIRT1; Repeat2): 85%
activity at 10 µM (SIRT1; Repeat1): 61%
activity at 10 µM (SIRT1; Repeat2): 64%
activity at 33 µM (SIRT1; Repeat1): 42%
activity at 33 µM (SIRT1; Repeat2): 40%
activity at 100 µM (SIRT1; Repeat1): 25%
activity at 100 µM (SIRT1; Repeat2): 26%
IC50 (SIRT1; mean of two experiments): 32.6 ± 0.8 µM
IC50 (SEM cells): 1.79 µM
